Laboratory results reported in patent US20250129099A1, “INHIBITOR OF APOPTOSIS (IAP) PROTEIN ANTAGONISTS” (Sanford Burnham Prebys Medical Discovery Institute, priority 2021, published 2025).
Counter-ions that a name gives are not always drawn. Like-named read-outs stand apart in the source and are kept apart here.

How the values were obtained:
SKOV-3 cancer cell lines = experiment: Cell viability of SKOV-3 cancer cell lines after treatment with test compound; assay type: cell-based
Method: […] Cell viability is evaluated following treatment with a compound as disclosed in Table B. Viability of cancer cells following treatment is indicated according to the following legend:

OVCAR-4 = experiment: Cell viability of OVCAR-4 cells after treatment with test compound; assay type: cell-based
[1] = Homo sapiens, SK-OV-3, SKOV-3 cancer cells

Row | SMILES | IC50 (SKOV-3 cancer cell lines; [1]) [nM] | IC50 (OVCAR-4; Homo sapiens) [nM] | IC50 (SKOV-3 cancer cell lines; SKOV-3 cancer cells) [nM] | IC50 (OVCAR-4) [nM]
1 | CN[C@@H](C)NC(=O)N[C@H]1CCSC2CC(C)(C)[C@@H](C(=O)N[C@@H]3CCOc4ccccc43)N2C1=O (stereo partly drawn) [Compound 7, (4S,7S)—N—((R)-chroman-4-yl)-8,8-dimethyl-4-(3-((R)-1-(methylamino)ethyl)ureido)-5-oxooctahydropyrrolo[2,1-b][1,3]thiazepine-7-carboxamide hydrochloride] | > 1000 | > 1000 | – | –
2 | CN[C@@H](C)C(=O)N[C@H]1CCO[C@H]2CC3(CCCC3)[C@@H](C(=O)N[C@@H]3CCOc4ccccc43)N2C1=O [Compound 9, (4′S,7′S,9a'S)-4′-((S)-2-(chloro(methyl)-16-azaneyl)propanamido)-N-(chroman-4-yl)-5′-oxohexahydro-7′H-spiro[cyclopentane-1,8′-pyrrolo[2,1-b][1,3]oxazepine]-7′-carboxamide] | 1 to 10 | 100 to 1000 | – | –
3 | CC[C@H](NC)C(=O)N[C@H]1CCO[C@H]2CC3(CCCC3)[C@@H](C(=O)N[C@@H]3CCOc4ccccc43)N2C1=O [Compound 10, (4′S,7′S,9a'S)-4′-((S)-2-(chloro(methyl)-16-azaneyl)butanamido)-N-(chroman-4-yl)-5′-oxohexahydro-7′H-spiro[cyclopentane-1,8′-pyrrolo[2,1-b][1,3]oxazepine]-7′-carboxamide] | 1 to 10 | 100 to 1000 | – | –
4 | CN[C@@H](C)C(=O)N[C@H]1CCS[C@H]2CC3(CC=CC3)[C@@H](C(=O)N[C@@H]3CCCc4ccccc43)N2C1=O [Compound 11, (4′S,7′S,9a'S)-4′-((S)-2-(chloro(methyl)-15-azaneyl)propanamido)-5′-oxo-N-(1,2,3,4-tetrahydronaphthalen-1-yl)-2′,3′,4′,5′,9′,9a′-hexahydro-7′H-spiro[cyclopentane-1,8′-pyrrolo[2,1-b][1,3]thiazepin]-3-ene-7′-carboxamide] | 1 to 10 | 10 to 100 | – | –
5 | CN[C@@H](C)C(=O)N[C@H]1CCO[C@H]2CC3(CC=CC3)[C@@H](C(=O)N[C@H]3CCOc4ccccc43)N2C1=O [Compound 12, (4′S,7′S,9a'S)-4′-((S)-2-(chloro(methyl)-15-azaneyl)propanamido)-N—((S)-chroman-4-yl)-5′-oxo-2′,3′,4′,5′,9′,9a′-hexahydro-7′H-spiro[cyclopentane-1,8′-pyrrolo[2,1-b][1,3]oxazepin]-3-ene-7′-carboxamide] | – | – | 100 to 1000 | > 1000
6 | CC[C@H](NC)C(=O)N[C@H]1CCO[C@H]2CC3(CC=CC3)[C@@H](C(=O)N[C@@H]3CCOc4ccccc43)N2C1=O [Compound 13, (4′S,7′S,9a'S)-4′-((S)-2-(chloro(methyl)-16-azaneyl)butanamido)-N—((S)-chroman-4-yl)-5′-oxo-2′,3′,4′,5′,9′,9a′-hexahydro-7′H-spiro[cyclopentane-1,8′-pyrrolo[2,1-b][1,3]oxazepin]-3-ene-7′-carboxamide] | 1 to 10 | 100 to 1000 | – | –

Further lines, with some results ahead:

Row | IC50 (SKOV-3 cancer cell lines; [1]) [nM] | IC50 (OVCAR-4; Homo sapiens) [nM] | SMILES | IC50 (SKOV-3 cancer cell lines; SKOV-3 cancer cells) [nM] | IC50 (OVCAR-4) [nM]
7 | 1 to 10 | 10 to 100 | CN[C@@H](C)C(=O)N[C@H]1CCS[C@H]2CC(C)(C)[C@@H](C(=O)N[C@@H]3CCOc4ccccc43)N2C1=O [Compound 1, (4S,7S)—N—((R)-chroman-4-yl)-8,8-dimethyl-4-((S)-2-(methylamino)propanamido)-5-oxooctahydropyrrolo[2,1-b][1,3]thiazepine-7-carboxamide hydrochloride] | – | –
8 | 1 to 10 | 100 to 1000 | CN[C@@H](C)C(=O)N[C@H]1CCS[C@H]2CC(C)(C)[C@@H](C(=O)N[C@@H]3CCSc4ccccc43)N2C1=O [Compound 2, (4S,7S)-8,8-dimethyl-4-((S)-2-(methylamino)propanamido)-5-oxo-N—((R)-thiochroman-4-yl)octahydropyrrolo[2,1-b][1,3]thiazepine-7-carboxamide hydrochloride] | – | –
9 | 1 to 10 | 10 to 100 | CN[C@@H](C)C(=O)N[C@H]1CCS[C@H]2CC3(CC=CC3)[C@@H](C(=O)N[C@@H]3CCOc4ccccc43)N2C1=O [Compound 3, (4′S,7′S,9a'S)-4′-((S)-2-(chloro(methyl)-15-azaneyl)propanamido)-N—((R)-chroman-4-yl)-5′-oxo-2′,3′,4′,5′,9′,9a′-hexahydro-7′H-spiro[cyclopentane-1,8′-pyrrolo[2,1-b][1,3]thiazepin]-3-ene-7′-carboxamide] | – | –
10 | 1 to 10 | 100 to 1000 | CN[C@@H](C)C(=O)N[C@H]1CCS[C@H]2CC3(CC=CC3)[C@@H](C(=O)N[C@@H]3CCSc4ccccc43)N2C1=O [Compound 4, (4′S,7′S,9a'S)-4′-((S)-2-(chloro(methyl)-15-azaneyl)propanamido)-5′-oxo-N—((R)-thiochroman-4-yl)-2′,3′,4′,5′,9′,9a′-hexahydro-7′H-spiro[cyclopentane-1,8′-pyrrolo[2,1-b][1,3]thiazepin]-3-ene-7′-carboxamide] | – | –
11 | 1 to 10 | 10 to 100 | CN[C@@H](C)C(=O)N[C@H]1CCS[C@H]2CC3(CCCC3)[C@@H](C(=O)N[C@@H]3CCOc4ccccc43)N2C1=O [Compound 5, (4′S,7′S,9a'S)-4′-((S)-2-(chloro(methyl)-15-azaneyl)propanamido)-N-(chroman-4-yl)-5′-oxohexahydro-7′H-spiro[cyclopentane-1,8′-pyrrolo[2,1-b][1,3]thiazepine]-7′-carboxamide] | – | –
12 | 1 to 10 | 100 to 1000 | CN[C@@H](C)C(=O)N[C@H]1CCS[C@H]2CC3(CCCC3)[C@@H](C(=O)N[C@@H]3CCSc4ccccc43)N2C1=O [Compound 6, (4′S,7′S,9a'S)-4′-((S)-2-(chloro(methyl)-15-azaneyl)propanamido)-5′-oxo-N—((R)-thiochroman-4-yl)hexahydro-7′H-spiro[cyclopentane-1,8′-pyrrolo[2,1-b][1,3]thiazepine]-7′-carboxamide] | – | –
13 | 1 to 10 | 10 to 100 | CC[C@H](NC)C(=O)N[C@H]1CCSC2CC(C)(C)[C@@H](C(=O)N[C@@H]3CCOc4ccccc43)N2C1=O (stereo partly drawn) [Compound 8, (4S,7S)—N—((R)-chroman-4-yl)-8,8-dimethyl-4-((S)-2-(methylamino)butanamido)-5-oxooctahydropyrrolo[2,1-b][1,3]thiazepine-7-carboxamide hydrochloride] | – | –
